# Literature values, collected in paper PMC8583936, “Machine Learning Assisted Approach for Finding Novel High Activity Agonists of Human Ectopic Olfactory Receptors” (International Journal of Molecular Sciences, 2021).
# Like-named read-outs stand apart in the source and are kept apart here.
# Assays:
# OR1A1 = target: T1, OR1A1 (Homo sapiens, UniProt Q9P1Q5); conditions: cited from earlier work
# T1 sequence (Q9P1Q5 1-309): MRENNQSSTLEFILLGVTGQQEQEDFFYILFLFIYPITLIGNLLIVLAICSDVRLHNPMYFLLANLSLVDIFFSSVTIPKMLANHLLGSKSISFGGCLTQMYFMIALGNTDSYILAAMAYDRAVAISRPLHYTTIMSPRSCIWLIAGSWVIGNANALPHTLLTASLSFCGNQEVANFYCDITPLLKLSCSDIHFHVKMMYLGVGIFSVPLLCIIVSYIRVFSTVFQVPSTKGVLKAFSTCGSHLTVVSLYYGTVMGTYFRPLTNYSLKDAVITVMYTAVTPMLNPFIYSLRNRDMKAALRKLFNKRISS
# OR2W1 = target: T2, OR2W1 (Homo sapiens, UniProt Q9Y3N9); conditions: cited from earlier work
# T2 sequence (Q9Y3N9 1-320): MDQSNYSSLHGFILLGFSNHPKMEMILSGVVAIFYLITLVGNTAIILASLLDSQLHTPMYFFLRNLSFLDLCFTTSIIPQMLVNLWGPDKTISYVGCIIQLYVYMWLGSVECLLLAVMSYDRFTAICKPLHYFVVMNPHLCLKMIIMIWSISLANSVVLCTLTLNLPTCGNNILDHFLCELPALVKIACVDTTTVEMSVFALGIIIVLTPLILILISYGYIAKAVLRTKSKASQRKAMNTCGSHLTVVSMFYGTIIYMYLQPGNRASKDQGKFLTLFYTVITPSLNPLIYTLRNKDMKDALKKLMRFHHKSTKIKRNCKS
# [1] = Table S1, ref Supplement references [1]-[9] as printed after each odorant name
# [2] = Table S2, ref Supplement references [2]-[12] as printed after each odorant name
SMILES,Class (agonist / non-agonist / conflicting info.) for OR1A1 (OR1A1; [1]),Class (agonist / non-agonist / antagonist / conflicting info.) for OR2W1 (OR2W1; [2]),Class (agonist / non-agonist / conflicting info.) for OR1A1 (OR1A1),Class (agonist / non-agonist / antagonist / conflicting info.) for OR2W1 (OR2W1)
COC(=O)C=Cc1ccccc1 [Methyl cinnamate],Non-agonist,Agonist,–,–
CSSCc1ccco1 [Methyl furfuryl disulfide],Conflicting info.,Non-agonist,–,–
COC(=O)C(C)C [Methyl isobutyrate],Non-agonist,Non-agonist,–,–
CCCSSSC [Methyl propyl trisulfide],Non-agonist,Non-agonist,–,–
COC(=O)c1ccccc1O [Methyl salicylate],Conflicting info.,Agonist,–,–
C=CC(=C)CCC=C(C)C [Myrcene],Non-agonist,Non-agonist,–,–
CCCCCOC(C)=O [N-amyl acetate],Non-agonist,Agonist,–,–
O=C(O)CCCCCCCC(=O)O [Nonanedioic acid],Non-agonist,Non-agonist,–,–
CCCCCCCCCS [Nonanethiol],Agonist,Agonist,–,–
CCCCCCCCC(=O)O [Nonanoic acid],–,–,Conflicting info.,Agonist
CCCCCCCCCO [Nonanol],Non-agonist,Agonist,–,–
CCCCCCCC=O [Octanal],Conflicting info.,Agonist,–,–
CCCCCCCCS [Octanethiol],–,–,Conflicting info.,Agonist
CCCCCCCC(=O)O [Octanoic acid],–,–,Non-agonist,Conflicting info.
CCCCCCCCO [Octanol],Conflicting info.,Agonist,–,–
CCCCCCCCOC(=O)CCCCCCC [Octyl octanoate],Conflicting info.,Antagonist,–,–
"C=C(C)c1ccc(C)cc1 [P,α-Dimethylstyrene]",Non-agonist,Agonist,–,–
O=C(O)C=Cc1ccc(O)cc1 [P-Coumaric acid],Non-agonist,Non-agonist,–,–
CCCCC=O [Pentanal],Non-agonist,Non-agonist,–,–
CCCCCO [Pentanol],Conflicting info.,Conflicting info.,–,–
O=CCc1ccccc1 [Phenyl acetaldehyde],Non-agonist,Non-agonist,–,–
CC(=O)Oc1ccccc1 [Phenyl acetate],Non-agonist,Non-agonist,–,–
CC(=O)OCC=C(C)C [Prenyl acetate],Non-agonist,Agonist,–,–
CCC=O [Propanal],Conflicting info.,Conflicting info.,–,–
CCC(=O)O [Propionic acid],–,–,Conflicting info.,Non-agonist
CCCOC(=O)CCC [Propyl butyrate],–,–,Non-agonist,Non-agonist
CCCSSCCC [Propyl disulfide],Non-agonist,Non-agonist,–,–
